The record followed here is US10669258B2, “3-sulfonyl-5-aminopyridine-2,4-diol APJ agonists” (BRISTOL-MYERS SQUIBB COMPANY, priority 2016, dated 2020).

The structures appear in SMILES notation.

One assay concerns the target T1, human APJ receptor (Homo sapiens, UniProt P35414).
T1 construct: expressed in transfected cells; host or cells: HEK293
T1 sequence (P35414 1-380): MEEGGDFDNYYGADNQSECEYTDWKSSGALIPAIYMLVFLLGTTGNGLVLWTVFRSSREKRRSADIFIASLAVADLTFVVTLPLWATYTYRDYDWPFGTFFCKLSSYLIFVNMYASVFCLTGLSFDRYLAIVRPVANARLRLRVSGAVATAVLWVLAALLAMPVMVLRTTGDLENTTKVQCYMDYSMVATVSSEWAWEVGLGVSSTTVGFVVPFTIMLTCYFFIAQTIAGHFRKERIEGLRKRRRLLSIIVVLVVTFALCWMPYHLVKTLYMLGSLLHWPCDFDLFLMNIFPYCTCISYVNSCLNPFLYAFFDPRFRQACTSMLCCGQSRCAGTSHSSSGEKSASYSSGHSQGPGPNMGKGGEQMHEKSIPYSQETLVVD
The assay is described as follows: Intracellular cAMP accumulation assay (APJ hcAMP, HTRF). In kind it is cell-based. Conditions: HEK293 cells stably expressing human APJ receptor; inhibition of forskolin-mediated cAMP production; Table 1; read-out: hAPJ cAMP EC50 Potency range. In outline:
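Inhibition of forskolin (2 μM)-driven cAMP, with […], measured by HTRF after 30 min room-temperature compound exposure of stably transfected HEK293 cells. cAMP read from a standard curve; variable-slope fit gives EC50, and maximal inhibition is normalised to (Pyr1)apelin-13 as 100%.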
A general note: Changes in cAMP serve as a functional read-out for many G protein-coupled receptors.
For the molecule `CCCCc1nc(O)c(S(=O)(=O)c2ccc(-c3ccccc3C(=O)NC)cc2)c(O)c1N1CCCCc2ccccc21` [Example 184, 4′-((6-butyl-2,4-dihydroxy-5-(2,3,4,5-tetrahydro-1H-benzo[b]azepin-1-yl)pyridin-3-yl)sulfonyl)-N-methyl-[1,1′-biphenyl]-2-carboxamide], the EC50 (commonly the concentration needed to bring the measured effect to its halfway point) fell in the range of 10 to 100 nM.

As to `CCCCc1nc(O)c(S(=O)(=O)c2ccc(-c3ccc(F)nc3C)cc2)c(O)c1N(C)c1cccc(C#N)c1` [Example 117, 3-((2-butyl-5-((4-(6-fluoro-2-methylpyridin-3-yl)phenyl)sulfonyl)-4,6-dihydroxypyridin-3-yl)(methyl)amino)benzonitrile], the EC50 lay in the range of 0.01 to 10 nM.

Consider `CCCCc1nc(O)c(S(=O)(=O)c2ccc(-c3ccncc3C)cc2)c(O)c1N(C)c1cccc(Cl)c1` [Example 110, 6-butyl-5-((3-chlorophenyl)(methyl)amino)-3-((4-(3-methylpyridin-4-yl)phenyl)sulfonyl)pyridine-2,4-diol], for which the EC50 was in the range of 0.01 to 10 nM.

Consider `CCN(c1ccccc1)c1c(-c2ccn(C)n2)nc(O)c(S(=O)(=O)c2ccc(-c3ccncc3C)cc2)c1O` [Example 064, 5-(ethyl(phenyl)amino)-6-(1-methyl-1H-pyrazol-3-yl)-3-((4-(3-methylpyridin-4-yl)phenyl)sulfonyl)pyridine-2,4-diol], for which the EC50 was 0.01 to 10 nM.

Consider `CCCCc1nc(O)c(S(=O)(=O)c2ccc(-c3ccncc3C)cc2)c(O)c1N1CCCCc2ccccc21` [Example 169, 6-butyl-3-((4-(3-methylpyridin-4-yl)phenyl)sulfonyl)-5-(2,3,4,5-tetrahydro-1H-benzo[b]azepin-1-yl)pyridine-2,4-diol], for which the EC50 is 10 to 100 nM.

Consider `CCCCc1nc(O)c(S(=O)(=O)c2ccc(-c3ccccc3COC)cc2)c(O)c1N(CC)c1ccccc1` [Example 087, 6-butyl-5-(ethyl(phenyl)amino)-3-((2′-(methoxymethyl)-[1,1′-biphenyl]-4-yl)sulfonyl)pyridine-2,4-diol], for which the EC50 fell in the range of 0.01 to 10 nM.

Turning to `CCCCc1nc(O)c(S(=O)(=O)c2ccc(-c3ccncc3C)cc2)c(O)c1N(CC)c1ccccc1` [Example 078, 6-butyl-5-(ethyl(phenyl)amino)-3-((4-(3-methylpyridin-4-yl)phenyl)sulfonyl)pyridine-2,4-diol], the EC50 was 0.01 to 10 nM.

Turning to `CCCCc1nc(O)c(S(=O)(=O)c2ccc(-c3cccnc3C)cc2)c(O)c1N1CCCOc2ccccc21` [Example 123, 6-butyl-5-(3,4-dihydrobenzo[b][1,4]oxazepin-5(2H)-yl)-3-((4-(2-methylpyridin-3-yl)phenyl)sulfonyl)pyridine-2,4-diol], the EC50 is 10 to 100 nM.

`CCCCc1nc(O)c(S(=O)(=O)c2ccc(-c3ccnc(F)c3C)cc2)c(O)c1N1CCCOc2ccccc21` [Example 127, 6-butyl-5-(3,4-dihydrobenzo[b][1,4]oxazepin-5(2H)-yl)-3-((4-(2-fluoro-3-methylpyridin-4-yl)phenyl)sulfonyl)pyridine-2,4-diol]: the half-maximal effective concentration (EC50) lay in the range of 0.01 to 10 nM.

In the case of `CCCCc1nc(O)c(S(=O)(=O)c2ccc(-c3ccccc3C(=O)N(C)C)cc2)c(O)c1N1CCCOc2ccccc21` [Example 142, 4′-((6-butyl-5-(3,4-dihydrobenzo[b][1,4]oxazepin-5(2H)-yl)-2,4-dihydroxypyridin-3-yl)sulfonyl)-N,N-dimethyl-[1,1′-biphenyl]-2-carboxamide], the EC50 lay in the range of 10 to 100 nM.

On to `CCCCc1nc(O)c(S(=O)(=O)c2ccc(-c3cccnc3C)cc2)c(O)c1N1c2ccccc2CCC1C` (stereo not drawn) [Example 046, 6-butyl-5-(2-methyl-3,4-dihydroquinolin-1(2H)-yl)-3-((4-(2-methylpyridin-3-yl)phenyl)sulfonyl)pyridine-2,4-diol], for which the EC50 fell in the range of 0.01 to 10 nM.

Take `CCN(c1ccccc1)c1c(CC2CC2)nc(O)c(S(=O)(=O)c2ccc(-c3cccnc3C)cc2)c1O` [Example 050, 6-(cyclopropylmethyl)-5-(ethyl(phenyl)amino)-3-((4-(2-methylpyridin-3-yl)phenyl)sulfonyl)pyridine-2,4-diol]: the EC50 is 0.01 to 10 nM.

For the molecule `CCCCc1nc(O)c(S(=O)(=O)c2ccc(-c3cccnc3C)cc2)c(O)c1N(C)c1ccc(OC)cc1` [Example 035, 6-butyl-5-((4-methoxyphenyl)(methyl)amino)-3-((4-(2-methylpyridin-3-yl)phenyl)sulfonyl)pyridine-2,4-diol], the EC50 lay in the range of 10 to 100 nM.

As to `CCCCc1nc(O)c(S(=O)(=O)c2ccc(-c3ccccc3C(=O)N(C)C)cc2)c(O)c1N(CC)c1cc(C)cc(C)c1` [Example 140, 4′-((6-butyl-5-((3,5-dimethylphenyl)(ethyl)amino)-2,4-dihydroxypyridin-3-yl)sulfonyl)-N,N-dimethyl-[1,1′-biphenyl]-2-carboxamide], the EC50 lay in the range of 0.01 to 10 nM.

Regarding `CCCCc1nc(O)c(S(=O)(=O)c2ccc(-c3cccnc3C)cc2)c(O)c1N(C)c1cccc(Cl)c1` [Example 102, 6-butyl-5-((3-chlorophenyl)(methyl)amino)-3-((4-(2-methylpyridin-3-yl)phenyl)sulfonyl)pyridine-2,4-diol], the EC50 lay in the range of 10 to 100 nM.

For the molecule `CC(C)N(c1ccccc1)c1c(-c2ccn(C)n2)nc(O)c(S(=O)(=O)c2ccc(-c3ccccc3C(=O)NC3CC3)cc2)c1O` [Example 162, N-cyclopropyl-4′-((2,4-dihydroxy-5-(isopropyl(phen-yl)amino)-6-(1-methyl-1H-pyrazol-3-yl)pyridin-3-y)sulfonyl)-[1,1′-biphenyl]-2-carboxamide], the EC50 was in the range of 0.01 to 10 nM.

Take `CCN(c1cccc(C#N)c1)c1c(-c2ccn(C)n2)nc(O)c(S(=O)(=O)c2ccc(-c3ccccc3C(N)=O)cc2)c1O` [Example 216, 4′-((5-((3-cyanophenyl)(ethyl)ami-no)-2,4-dihydroxy-6-(1-methyl-1H-pyrazol-3-yl)pyridin-3-yl)sulfonyl)-[1,1′-biphenyl]-2-carboxamide]: the EC50 was 0.01 to 10 nM.

Take `CCCCc1nc(O)c(S(=O)(=O)c2ccc(-c3ccncc3C)cc2)c(O)c1N(C)c1cccc(C#N)c1` [Example 113, 3-((2-butyl-4,6-dihydroxy-5-((4-(3-methylpyridin-4-yl)phenyl)sulfonyl)pyridin-3-yl)(methyl)amino)benzonitrile]: the half-maximal effective concentration (EC50) lay in the range of 0.01 to 10 nM.

`CCCCc1nc(O)c(S(=O)(=O)c2ccc(-c3ccncc3C)cc2)c(O)c1N(CC)c1cc(C)cc(C)c1` [Example 133, 6-butyl-5-((3,5-dimethylphenyl)(ethyl)amino)-3-((4-(3-methylpyridin-4-yl)phenyl)sulfonyl)pyridine-2,4-diol]: the EC50 lay within 0.01 to 10 nM.

`CC(C)N(c1ccccc1)c1c(-c2ccn(C)n2)nc(O)c(S(=O)(=O)c2ccc(-c3ccc(F)cc3C(N)=O)cc2)c1O` [Example 161, 4′-((2,4-dihydroxy-5-(isopropyl(phenyl)amino)-6-(1-methyl-1H-pyrazol-3-yl)pyridin-3-yl)sulfonyl)-4-fluoro-[1,1′-biphenyl]-2-carboxamide]: the EC50 lay within 0.01 to 10 nM.

Regarding `CCCCc1nc(O)c(S(=O)(=O)c2ccc(-c3ccc(F)nc3C)cc2)c(O)c1N1CCCOc2ccccc21` [Example 115, 6-butyl-5-(3,4-dihydrobenzo[b][1,4]oxazepin-5(2H)-yl)-3-((4-(6-fluoro-2-methylpyridin-3-yl)phenyl)sulfonyl)pyridine-2,4-diol], the EC50 was in the range of 10 to 100 nM.

Turning to `CCCCc1nc(O)c(S(=O)(=O)c2ccc(-c3ccccc3C(=O)N(C)C)cc2)c(O)c1N1CCCCc2ccccc21` [Example 179, 4′-((6-butyl-2,4-dihydroxy-5-(2,3,4,5-tetrahydro-1H-benzo[b]azepin-1-yl)pyridin-3-yl)sulfonyl)-N,N-dimethyl-[1,1′-biphenyl]-2-carboxamide], the EC50 lay within 10 to 100 nM.

Regarding `CCCCc1nc(O)c(S(=O)(=O)c2ccc(-c3cccnc3C)cc2)c(O)c1N(C)c1cccc(C#N)c1` [Example 119, 3-((2-butyl-4,6-dihydroxy-5-((4-(2-methylpyridin-3-yl)phenyl)sulfonyl)pyridin-3-yl)(methyl)amino)benzonitrile], the EC50 lay in the range of 0.01 to 10 nM.

For `CCN(c1ccccc1)c1c(-c2cccc(C)c2)nc(O)c(S(=O)(=O)c2ccc(-c3ccnc(F)c3C)cc2)c1O` [Example 122, 5-(ethyl(phenyl)amino)-3-((4-(2-fluoro-3-methylpyridin-4-yl)phenyl)sulfonyl)-6-(m-tolyl)pyridine-2,4-diol], the EC50 was 0.01 to 10 nM.

Consider `CCCCc1nc(O)c(S(=O)(=O)c2ccc(-c3ccnc(F)c3C)cc2)c(O)c1N(C)c1cccc(Cl)c1` [Example 107, 6-butyl-5-((3-chlorophenyl)(methyl)amino)-3-((4-(2-fluoro-3-methylpyridin-4-yl)phenyl)sulfonyl)pyridine-2,4-diol], for which the EC50 was in the range of 0.01 to 10 nM.

Take `CCCCc1nc(O)c(S(=O)(=O)c2ccc(-c3cccnc3C)cc2)c(O)c1N(C)c1ccc(C)cc1` [Example 097, 6-butyl-5-(methyl(p-tolyl)amino)-3-((4-(2-methylpyridin-3-yl)phenyl)sulfonyl)pyridine-2,4-diol]: the EC50 was 10 to 100 nM.

The same assay, now with this note: hAPJ cAMP EC50 Potency range, HEK293 cells stably expressing human APJ receptor; inhibition of forskolin-mediated cAMP production; Table 1.
As for `CCCCc1nc(O)c(C(=O)N2CC[C@H](c3ccccc3)C2)c(O)c1N(C)c1ccccc1` [Example 008, (R)-(6-butyl-2,4-dihydroxy-5-(methyl(phenyl)amino)pyridin-3-yl)(3-phenylpyrrolidin-1-yl)methanone], the EC50 lay within 10 to 100 nM.
